Data on two compounds can be found in ChEMBL document CHEMBL1629595, “Truncated tni module adjacent to the complex integron of salmonella genomic island 1 in Salmonella enterica serovar Virchow” (2009).

Converted amounts (≈) assume the structure as drawn. Bounds are passed on as bounds.

For one test, the system named is Salmonella typhimurium. As to the kind of experiment: Antibacterial activity against multidrug-resistant Salmonella enterica subsp. enterica serovar Typhimurium BN9181 expressing floR. It counts as functional.
Test [1] can be described thus: Antibacterial activity against multidrug-resistant Salmonella enterica serovar Virchow B94 expressing floR2. It counts as functional, Salmonella enterica subsp. enterica serovar Virchow.
Test [2] is described as follows: Antibacterial activity against multidrug-resistant Salmonella enterica serovar Virchow B98 expressing floR2. It counts as functional, Salmonella enterica subsp. enterica serovar Virchow.
Test [3] in a line: Antibacterial activity against multidrug-resistant Salmonella enterica serovar Virchow B100 expressing floR2. It counts as functional, Salmonella enterica subsp. enterica serovar Virchow.

With `O=C(N[C@H](CO)[C@H](O)c1ccc([N+](=O)[O-])cc1)C(Cl)Cl` [CHLORAMPHENICOL], the MIC was 256 µg/mL (≈ 792 µM) with Salmonella typhimurium, over 256 µg/mL in test [1], over 256 µg/mL in test [2] and over 256 µg/mL in test [3].
Turning to `CS(=O)(=O)c1ccc([C@@H](O)[C@@H](CF)NC(=O)C(Cl)Cl)cc1` [FLORFENICOL], the MIC in the test with Salmonella typhimurium was determined as 64 µg/mL (≈ 179 µM); in test [1], 32 µg/mL (≈ 89.3 µM); in test [2], 32 µg/mL (≈ 89.3 µM); in test [3] it was 32 µg/mL (≈ 89.3 µM).

As usually defined, the MIC is the smallest concentration in the dilution series that meets the test's criterion for growth inhibition. Low readings indicate inhibition by little substance, high ones a need for much substance.
